Results as given in BindingDB's records for doi:10.1021/jm070336k (University of Mississippi, 2007).

Molecular target: L-lactate dehydrogenase B chain (Bos taurus, UniProt Q5E9B1)
Test: Lactate Dehydrogenase Inhibition Assay
Settings: pH 7; 25 °C

L-lactate dehydrogenase B chain, sequence (Q5E9B1 whole entry): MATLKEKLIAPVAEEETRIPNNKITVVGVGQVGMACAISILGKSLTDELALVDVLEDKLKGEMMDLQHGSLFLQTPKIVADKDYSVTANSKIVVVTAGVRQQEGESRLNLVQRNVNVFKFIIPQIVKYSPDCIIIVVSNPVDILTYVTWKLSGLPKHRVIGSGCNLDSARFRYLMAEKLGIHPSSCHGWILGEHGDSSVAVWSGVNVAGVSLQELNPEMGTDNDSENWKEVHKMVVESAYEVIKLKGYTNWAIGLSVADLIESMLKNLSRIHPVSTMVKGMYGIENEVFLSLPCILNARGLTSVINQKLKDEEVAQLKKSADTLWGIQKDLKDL

Row | SMILES | IC50
1 | O=C(O)C(=O)Nc1ccc(CCOc2cc(O)c3c(=O)cc(C(=O)O)oc3c2)cc1 [7-{2-[4-(formamidoformic acid)phenyl]ethoxy}-5-hydroxy-4-oxo-4H-chromene-2-carboxylic acid] | > 241 µM
2 | COc1cc(COc2cc(O)c3c(=O)cc(C(=O)O)oc3c2)ccc1NC(=O)C(=O)O [7-{[4-(formamidoformic acid)-3-methoxyphenyl]methoxy}-5-hydroxy-4-oxo-4H-chromene-2-carboxylic acid] | > 232 µM

Continued, values first:

Row | IC50 | SMILES
3 | > 225 µM | COc1cc(CCOc2cc(O)c3c(=O)cc(C(=O)O)oc3c2)ccc1NC(=O)C(=O)O [7-{2-[4-(formamidoformic acid)-3-methoxyphenyl]ethoxy}-5-hydroxy-4-oxo-4H-chromene-2-carboxylic acid]
4 | > 179 µM | COc1ccc(CNC(=O)c2cc(=O)c3c(O)cc(OCCc4ccc(NC(=O)C(=O)O)c(C#N)c4)cc3o2)cc1 [[(2-cyano-4-{2-[(5-hydroxy-2-{[(4-methoxyphenyl)methyl]carbamoyl}-4-oxo-4H-chromen-7-yl)oxy]ethyl}phenyl)carbamoyl]formic acid]
5 | > 187 µM | COc1ccc(CNC(=O)c2cc(=O)c3c(O)cc(OCCc4ccc(NC(=O)C(=O)O)cc4)cc3o2)cc1 [[(4-{2-[(5-hydroxy-2-{[(4-methoxyphenyl)methyl]carbamoyl}-4-oxo-4H-chromen-7-yl)oxy]ethyl}phenyl)carbamoyl]formic acid]

Molecular target: L-lactate dehydrogenase (Plasmodium falciparum (isolate CDC / Honduras), UniProt Q27743)
Sequence (Q27743 whole entry): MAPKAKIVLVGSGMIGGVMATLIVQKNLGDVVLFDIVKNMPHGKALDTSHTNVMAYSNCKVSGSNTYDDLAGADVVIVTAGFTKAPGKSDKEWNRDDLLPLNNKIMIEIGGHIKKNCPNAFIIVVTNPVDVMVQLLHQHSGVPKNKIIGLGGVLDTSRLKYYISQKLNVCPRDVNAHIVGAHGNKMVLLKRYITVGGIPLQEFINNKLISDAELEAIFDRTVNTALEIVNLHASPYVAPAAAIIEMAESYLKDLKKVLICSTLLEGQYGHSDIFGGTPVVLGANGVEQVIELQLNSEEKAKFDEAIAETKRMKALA
Test: Lactate Dehydrogenase Inhibition Assay
Settings: pH 7; 25 °C

Row | SMILES | IC50
6 | O=C(O)C(=O)Nc1ccc(CCOc2cc(O)c3c(=O)cc(C(=O)O)oc3c2)cc1 [7-{2-[4-(formamidoformic acid)phenyl]ethoxy}-5-hydroxy-4-oxo-4H-chromene-2-carboxylic acid] | > 241 µM
